Data: PubChem BioAssay AID1963825 (Molecular Pharmacology Branch, DTP, NCI, 2024)

Test: Anticancer human tumor 997537-175-T-J1-PDC patient-derived colon adenocarcinoma cell line growth inhibition [POLQ]
Conditions: 997537-175-T-J1-PDC complex spheroid viability, combination with POLQ inhibitors; for IC50: curve of first compound; for viability, T/C: stronger effect = lower value; active means viability on the fitted dose curve at most 10% of control; inactive means the rest
Procedure, shortened: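 Three-cell-type spheroids modelling solid tumor plus stroma served as the readout system; POL inhibitors were tested individually and in combination, concentration ranges set by clinical Cmax where known.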
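Further: luminescence signal used as a surrogate for viable cells; spheroids exposed to drugs for seven days before readout.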

CC(=O)O[C@H]1C(=O)[C@@]2(C)[C@H]([C@H](OC(=O)c3ccccc3)[C@]3(O)C[C@H](OC(=O)[C@H](O)[C@@H](NC(=O)c4ccccc4)c4ccccc4)C(C)=C1C3(C)C)[C@]1(OC(C)=O)CO[C@@H]1C[C@@H]2O + Cc1cccc(N(C)C(=O)C2C(O)CCN2c2nc(C)cc(C(F)(F)F)c2C#N)c1
32.2 nM: IC50 (second compound 0.316 µM)
< 9.49 nM: IC50 (second compound 0.0316 µM) | IC50 (second compound 0.1 µM) | IC50 (second compound 1 µM) | IC50 (second compound 10 µM)
inactive: viability, T/C (second compound 0.0316 µM, first compound 0.00949 µM) 56% | viability, T/C (second compound 0.0316 µM, first compound 0.03 µM) 32.5% | viability, T/C (second compound 0.0316 µM, first compound 0.0949 µM) 16.2% | viability, T/C (second compound 0.0316 µM, first compound 0.3 µM) 20.3% | viability, T/C (second compound 0.0316 µM, first compound 0.949 µM) 35.2% | viability, T/C (second compound 0.0316 µM, first compound 3 µM) 41.5% | viability, T/C (second compound 0.1 µM, first compound 0.00949 µM) 53.7% | viability, T/C (second compound 0.1 µM, first compound 0.03 µM) 39% | viability, T/C (second compound 0.1 µM, first compound 0.0949 µM) 45.4% | viability, T/C (second compound 0.1 µM, first compound 0.3 µM) 32.4% | viability, T/C (second compound 0.1 µM, first compound 0.949 µM) 41.5% | viability, T/C (second compound 0.1 µM, first compound 3 µM) 35.5% | viability, T/C (second compound 0.316 µM, first compound 0.00949 µM) 54.1% | viability, T/C (second compound 0.316 µM, first compound 0.03 µM) 51.6% | viability, T/C (second compound 0.316 µM, first compound 0.0949 µM) 30.1% | viability, T/C (second compound 0.316 µM, first compound 0.3 µM) 29.8% | viability, T/C (second compound 0.316 µM, first compound 0.949 µM) 26.2% | viability, T/C (second compound 0.316 µM, first compound 3 µM) 20.3% | viability, T/C (second compound 1 µM, first compound 0.00949 µM) 41% | viability, T/C (second compound 1 µM, first compound 0.03 µM) 32.3% | viability, T/C (second compound 1 µM, first compound 0.0949 µM) 28.3% | viability, T/C (second compound 1 µM, first compound 0.3 µM) 39.7% | viability, T/C (second compound 1 µM, first compound 0.949 µM) 34.3% | viability, T/C (second compound 1 µM, first compound 3 µM) 31.9% | viability, T/C (second compound 3.16 µM, first compound 0.00949 µM) 79.5% | viability, T/C (second compound 3.16 µM, first compound 0.03 µM) 38.5% | viability, T/C (second compound 3.16 µM, first compound 0.0949 µM) 20.8% | viability, T/C (second compound 3.16 µM, first compound 0.3 µM) 40.2% | viability, T/C (second compound 3.16 µM, first compound 0.949 µM) 31.5% | viability, T/C (second compound 3.16 µM, first compound 3 µM) 34.2% | viability, T/C (second compound 10 µM, first compound 0.00949 µM) 48.1% | viability, T/C (second compound 10 µM, first compound 0.03 µM) 38.8% | viability, T/C (second compound 10 µM, first compound 0.0949 µM) 47.5% | viability, T/C (second compound 10 µM, first compound 0.3 µM) 30.6% | viability, T/C (second compound 10 µM, first compound 0.949 µM) 26.2% | viability, T/C (second compound 10 µM, first compound 3 µM) 53.9%
20.9 nM: IC50 (second compound 3.16 µM)
